Experiments:
[1] = test system: volunteer; assay: Pre ejaculation time of volunteers after taking the formulation or drug orally; assay type: in vivo, human; settings: for average pre ejaculation time: 5 minutes without the drug
[2] = test system: volunteer; assay: Side effects reported by the volunteers after taking the formulation or drug orally; assay type: in vivo, human
[3] = capsule, 60 mg only, after 3 hours, repeated experiments

With COc1cc(/C=C/C(=O)CC(=O)/C=C/c2ccc(O)c(OC)c2)ccc1O [curcumin, diferuloylmethane] the “changes in pre ejaculation time” value ([1]; capsule with curcumin 500 mg, after 1 hours, 3 hours and 12 hours) was “no significant changes”.
For COc1cccc(C2(O)CCCCC2CN(C)C)c1 (centres unmarked) [Tramadol, 2-[(dimethylamino)methyl]-1-(3-methoxyphenyl)-cyclohexanol], the “average pre ejaculation time” value ([1]; 20 mg only) was 10 min.
For CC(C)=CCC[C@]1(C)[C@@H](CC=C(C)C)C[C@@]2(CC=C(C)C)C(=O)[C@]1(C(=O)C(C)C)C(=O)C(CC=C(C)C)=C2O [hyperforin], the side effects ([2]; 1 capsule, 30 mg only (hyperforin)) was “headache”, the “average pre ejaculation time (change)” value ([1]; 1 capsule, 10 mg only, after 2 hours) was “not changed” and the “average pre ejaculation time” value ([1]; 1 capsule, 30 mg only, after 2 hours, repeated tests) was “around 8 minutes”.
CN[C@H]1CC[C@@H](c2ccc(Cl)c(Cl)c2)c2ccccc21 [sertraline] was tested, and the side effects ([2]; capsule, 60 mg only) was “significant side effects (stomach irritation, nausea and headache)”, the “average pre ejaculation time” value ([1]; 60 mg once daily for 10 days continuously) was 10 min and the “increase in pre-ejaculation time” value [1, 3] was “no significant increase”.
With CNCC[C@H](Oc1cccc2ccccc12)c1cccs1 [duloxetine] the side effects ([2]; capsule, 60 mg only) was “significant side effects (stomach irritation, nausea and headache)” and the “increase in pre-ejaculation time” value [1, 3] was “no significant increase”.
With COc1cc2c(cc1OC)[C@@H]1Cc3ccc(OC)c(OC)c3CN1CC2 [rotundine, L-tetrahydropalmatine] the ejaculation latency ([1]; alone, taken orally 50~200 mg 1 hr before sex) was “increase ejaculation latency”.
For Fc1ccc([C@@H]2CCNC[C@H]2COc2ccc3c(c2)OCO3)cc1 [paroxetine], the side effects ([2]; capsule, 30 mg only (paroxetine)) was “significant side effects (stomach irritation, nausea and headache)” and the “average pre ejaculation time” value ([1]; capsule, 30 mg only, after 3 hours, repeated experiments) was 8 min.
With CN(C)CCC[C@@]1(c2ccc(F)cc2)OCc2cc(C#N)ccc21 [escitalopram] the side effects ([2]; 20 mg only, once orally) was “significant side effects” and the “changes in pre ejaculation time” value ([1]; 20 mg only, once orally, after 3 hours) was “no significant changes”.
CN(C)[C@@H](CCOc1cccc2ccccc12)c1ccccc1 [dapoxetine] was tested, and the side effects ([2]; capsule, 60 mg only) was “significant side effects (stomach irritation, nausea and headache)” and the “average pre ejaculation time” value [1, 3] was 20 min.

— patent US11607406B2, “Therapeutical methods, formulations and nutraceutical formulations” (priority 2014, dated 2023)
